Results from US6864285B1, “Covalent derivatives of alkanolamides of monocarboxylic and dicarboxylic acids functionally active on the CB2 cannabinoid receptor” (Innovet Italia S.r.l., priority 1999, dated 2005).
In brackets after ≈: the same amount, converted by molar mass. Like-named read-outs stand apart in the source and are kept apart here.

What was measured:
CB1 receptor = target: T1, CB1 receptor (Mus musculus, UniProt P47746); experiment: Binding of [3H]SR141716A to membranes of N18TG2 cells; conditions: cell membranes, 300 pM ligand, 90' at 30° C.; read-out: Ki CB1 Receptor N18TG2 cells Lig. [3H]SR141716A
T1 construct: endogenous in cells; host or cells: mouse N18TG2 neuroblastoma cells
From the text: (§1) Effect of alkanolamide molecules on the binding of the synthetic ligands of the CB2 and CB1 cannabinoid receptors, respectively.
(§2) Rat RBL-2H3+ leukemic basophilic cells, which selectively express the cannabinoid CB2 receptor, and mouse N18TG2 neuroblastoma cells which selectively express the CB1 cannabinoid receptor were used. The cells were cultivated as described above (Facci L. et al. (1995) Proc. Natl: Acad: Sci. U.S.A. 92:: 3376-3380; Bisogno T. et al. 1997 J. Biol. Chem., 272: 3315-3323). WIN 55,212.2 was used as the selectively agonist synthetic ligand for the CB2 receptor.
SR141716A was used as the selective antagonist for the CB1 receptor.
(§3) [^3H]SR141716A (55 Ci/mmol) was supplied by Amersham; [^3H]WIN55,212-2 (43 Ci/mmol) was supplied by NEN. The binding tests were performed with membranes of the cells resuspended in 50 mMol Tris pH 7.0 buffer; 2.5 mMol MgCl2, 0.8 mMol EDTA; 0.05% bovine serum albumin (BSA); 0.01% ethanol, in the presence of 100 μM of phenyl-methyl-sulphonyl fluoride (PMSF-Sigma), with the use, of 300 pM of [^3H]SR141716A and of [^3H]WIN55,212-2, respectively, as the ligand.
(§4) The membranes were incubated for 90′ at 30° C. and filtered on glass microfibre filters (GFC-Whatman) and the radioactivity was detected by liquid scintillation. The specific binding was calculated with the use of either 10 μM SR141716A or 10 μM HU-210.
(§5) The Ki values were calculated by Chang-Prusoff's equation and expressed as concentration μM.

CB2 receptor [1] = target: T2, CB2 receptor (Rattus norvegicus, UniProt Q9QZN9); experiment: Binding of [3H]WIN55,212-2 to membranes of RBL-2H3+ cells; conditions: cell membranes, 300 pM ligand, 90' at 30° C.; read-out: Ki CB2 receptor RBL-2H3 + cells Lig. [3H]WIN55, 212-2
T2 construct: endogenous in cells; host or cells: rat RBL-2H3+ leukemic basophilic cells
T2 sequence (Q9QZN9 1-360): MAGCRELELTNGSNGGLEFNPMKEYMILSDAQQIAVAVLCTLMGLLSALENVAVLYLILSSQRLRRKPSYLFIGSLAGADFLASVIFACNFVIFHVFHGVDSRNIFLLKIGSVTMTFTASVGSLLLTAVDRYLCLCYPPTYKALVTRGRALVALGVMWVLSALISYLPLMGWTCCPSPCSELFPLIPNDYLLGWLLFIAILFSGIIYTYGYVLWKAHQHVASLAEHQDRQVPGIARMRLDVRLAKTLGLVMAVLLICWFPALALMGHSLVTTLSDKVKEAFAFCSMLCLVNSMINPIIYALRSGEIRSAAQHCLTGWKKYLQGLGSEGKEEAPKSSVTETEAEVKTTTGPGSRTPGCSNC
From the text: as §1, §2
HU-210 was used as the selective […] for the CB2 receptor.
as §3, §4, §5

[2] = Lipid/water partition parameter RM from thin-film chromatography on silica gel; assay type: physicochemical; conditions: for ΔRM solvent 1 / RM solvent 1 / RF solvent 1: Solvent 1: 100% ethyl acetate; for ΔRM solvent 1 / ΔRM solvent 2: RM of derivative minus RM of corresponding alkanolamide; for RM solvent 1 / RM solvent 2: RM=log (1/Rf−1); for RF solvent 1 / RF solvent 2: silica gel; for ΔRM solvent 2 / RM solvent 2 / RF solvent 2: Solvent 2: heptane:isopropanol:ethyl acetate:H2O 40:20:50:2
Protocol: The chemical and physical characteristics of the derivatives according to the invention were evaluated by quantitative measurement of the lipid/water partition parameter.
A useful parameter for evaluating the properties of a compound in relation to its possible absorption is in fact constituted by the coefficient of partition between the lipid phase and the aqueous phase, which is considered to be an expression of its lipophilicity and its degree of hydrophilicity. […] For the purpose of evaluating the characteristics of the derivatives of the invention, the partition parameter RM between the lipid and the aqueous phase, extrapolated from thin-film partition chromatography, was calculated; this parameter is commonly used to evaluate the lipophilic characteristics of compounds (Tomlinson E. J. Chromatogr. 1975, 113, 1) and is commonly used, for example, for local anaesthetics, in which a correlation has been shown between this parameter and biological activity (Bachrata M. et al. J. Chromatogr. 1979, 171, 29-36).
The partition parameter RM between the lipid phase and the aqueous phase was calculated both for the derivatives and for the non-substituted alkanolamides, from the Rf value obtained by thin-film chromatography on silica gel (particles of […], mean porosity 60 Å, thickness 0.25 mm on glass plate) in accordance with the formula: RM=log (1/Rf−1) and the ΔRM was obtained from the difference between the RM coefficients of the derivative and of the corresponding alkanolamide.

[3] = Solubility in water and in organic solvents (chemical and physical characteristics); conditions: for solubility in water: in words
physchem = conditions: organic solvent or mixture
CB2 receptor [4] = target: T2, CB2 receptor; experiment: Stimulation of cyclic AMP (cAMP) by forskolin in RBL-2H3+ cells; assay type: cell-based; conditions: 1 μM forskolin
Protocol: Effect of alkanolamide molecules on the stimulation of cyclic AMP (cAMP) by forskolin.
The tests were performed with the aim of checking whether the binding of the molecules of the present invention to the CB2 receptor has functional significance.
It is in fact known that the function activation of the CB2 receptor brings about, at intracellular level, inhibition of the enzymatic activity of adenylate cyclase and a reduction in the levels of the second-messenger cAMP, resulting in an increase in the conductance of the channels to potassium and an inhibition of proteic phosphorylation (Childers S. R. et al. Biochem. Parmacol. 1996, 52: 819-827).
The dosages of cAMP were performed on RBL-2H3+ cells flowing together in Petri dishes with six wells (Falcon); the cells were stimulated for 10′ at 37° C. with 1 μM of forskolin (Fluka) in 400 μl of medium without serum, containing 20 mM HEPES, 0.1 mg/ml BSA and 0.1 mM 1-methyl-3-isobutyl xanthine (Sigma) and either ethanol or alkanolamide molecules with or without the addition of HU-210. After incubation, the cells were extracted and the levels of cAMP were evaluated with a suitable Amersham kit in accordance with the producer's method. The data were expressed in IC50 μM.

[5] = 10' at 37° C., read-out: IC50 on forskolin-stimulated cAMP
[6] = + HU-210 (0.5 μM), read-out: IC50 on forskolin-stimulated cAMP with HU-210

T1 sequence (P47746 whole entry): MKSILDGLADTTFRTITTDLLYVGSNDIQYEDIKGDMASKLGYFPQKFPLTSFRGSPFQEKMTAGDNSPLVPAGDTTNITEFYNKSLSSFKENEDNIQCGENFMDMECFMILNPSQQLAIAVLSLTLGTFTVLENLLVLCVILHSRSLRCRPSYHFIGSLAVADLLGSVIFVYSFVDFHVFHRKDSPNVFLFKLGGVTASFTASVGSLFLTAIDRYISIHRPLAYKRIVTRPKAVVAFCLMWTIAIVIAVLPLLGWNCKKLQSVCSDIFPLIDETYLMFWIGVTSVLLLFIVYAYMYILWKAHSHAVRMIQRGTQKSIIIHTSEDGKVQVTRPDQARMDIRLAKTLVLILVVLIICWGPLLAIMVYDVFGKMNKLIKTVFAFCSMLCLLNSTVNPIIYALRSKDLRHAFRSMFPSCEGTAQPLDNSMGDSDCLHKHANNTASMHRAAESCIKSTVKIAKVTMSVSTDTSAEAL

Compound	Ki (CB1 receptor) [nM]	Ki (CB2 receptor [1]) [nM]	ΔRM solvent 1 [2]	RM solvent 1 [2]	RF solvent 1 [2]	ΔRM solvent 2 [2]	RM solvent 2 [2]	RF solvent 2 [2]	solubility in water [3]	solubility (physchem; ethanol) [µg/mL]	solubility (physchem; n-octanol) [µg/mL]	solubility (physchem; ethyl acetate) [µg/mL]	IC50 (CB2 receptor [4]; [5]) [nM]	IC50 (CB2 receptor [4]; [6]) [nM]	solubility in organic solvents: ethanol ([3]; ethanol)
N,N^1-bis[2-(ethoxycarbonyl)oxyethyl] nonandiamide [Example 4]	> 15000	2 ± 0.9	−0.866	−0.477	0.75	−0.723	−0.035	0.52	slightly soluble				1800	> 20000	10 mg/ml in ethanol,
CCCCC1C(=O)N(c2ccccc2)N(c2ccccc2)C1=O [phenyl butazone, reference compound]	> 15000	> 15000													

More lines, main results first:

Ki (CB1 receptor) [nM]	Ki (CB2 receptor [1]) [nM]	ΔRM solvent 1 [2]	RM solvent 1 [2]	RF solvent 1 [2]	ΔRM solvent 2 [2]	RM solvent 2 [2]	RF solvent 2 [2]	solubility in water [3]	solubility (physchem; ethanol) [µg/mL]	solubility (physchem; n-octanol) [µg/mL]	solubility (physchem; ethyl acetate) [µg/mL]	Compound	IC50 (CB2 receptor [4]; [5]) [nM]	IC50 (CB2 receptor [4]; [6]) [nM]	solubility in organic solvents: ethanol ([3]; ethanol)
> 15000	1 ± 0.8	−0.612	0.176	0.40	−0.175	−0.140	0.58	slightly soluble	10000 (≈ 23.3 mM)	10000 (≈ 23.3 mM)		CCCCCCCCCCCCCCCC(=O)NCCOC(=O)NCC(=O)OCC [Example 6, N-[2-[(ethoxycarbonylmethyl)aminocarbonyl]oxyethyl] hexadecanamide]	1900	> 20000	
> 15000	6 ± 1.8	−1.001	−0.213	0.62	−0.403	−0.368	0.70	slightly soluble	10000 (≈ 26.9 mM)	10000 (≈ 26.9 mM)	10000 (≈ 26.9 mM)	CCCCCCCCCCCCCCCC(=O)NCCOC(=O)OCC [Example 1, N-[2-(ethoxycarbonyl)oxyethyl]hexadecanamide]			
> 15000	9 ± 2.5	0.49	1.28	0.05				slightly soluble	10000 (≈ 22 mM)			CCCCCCCCCCCCCCCC(=O)NCCOC(=O)OCCN1CCCCC1 [Example 7, N-[2-[(2-piperidinoethoxy)carbonyl]oxyethyl] hexadecanamide]			
